Patent US20070043084A1, “1,2-Diarylimidazoles useful as inhibitors of cox” (Astellas Pharma Inc., priority 2003, published 2007)

How the values were obtained:
COX-I = target: T1, COX-I (Homo sapiens, UniProt P23219); test: Whole blood assay for COX-I (TXB2 production); assay type: cell-based; conditions: 1 hr at 37° C.
T1 construct: Fresh blood was collected by syringe without anticoagulants from volunteers with consent; from tissue; host or cells: fresh human whole blood from volunteers, no anticoagulant, left to clot
Protocol: [B] Inhibiting Activity Against COX-I and COX-II (Whole Blood Assay): (i) Test Method: Whole Blood Assay for COX-I
Fresh blood was collected by syringe without anticoagulants from volunteers with consent. The subjects had no apparent inflammatory conditions and had not taken any medication for at least 7 days prior to blood collection.
500 μl aliquots of human whole blood were immediately incubated with 2 μl of either dimethyl sulfoxide vehicle or a test compound at final concentrations for 1 hr at 37° C. to allow the blood to clot. Appropriate treatments (no incubation) were used as blanks. At the end of the incubation, 5 μl of 250 mM Indomethacin was added to stop the reaction. The blood was centrifuged at 6000×g for 5 min at 4° C. to obtain serum. A 100 μl aliquot of serum was mixed with 400 μl methanol for protein precipitation. The supernatant was obtained by centrifuging at 6000×g for 5 min at 4° C. and was assayed for TXB2 using an enzyme immunoassay kit according to the manufacturer's procedure. For a test compound, the results were expressed as percent inhibition of thromboxane B2(TXB2) production relative to control incubations containing dimethyl sulfoxide vehicle.
The data were analyzed by that a test compound at the indicated concentrations was changed log value and was applied simple linear regression. IC50 value was calculated by least squares method.

COX-II = target: T2, COX-II (Homo sapiens, UniProt P35354); test: Whole blood assay for COX-II (LPS-induced PGE2 production); assay type: cell-based; conditions: lipopolysaccharide 24 hrs at 37° C.
T2 construct: lipopolysaccharide for 24 hrs at 37° C. for induction of COX-II; from tissue; host or cells: fresh heparinized human whole blood from volunteers, stimulated with LPS for 24 hrs
T2 sequence (P35354 18-604): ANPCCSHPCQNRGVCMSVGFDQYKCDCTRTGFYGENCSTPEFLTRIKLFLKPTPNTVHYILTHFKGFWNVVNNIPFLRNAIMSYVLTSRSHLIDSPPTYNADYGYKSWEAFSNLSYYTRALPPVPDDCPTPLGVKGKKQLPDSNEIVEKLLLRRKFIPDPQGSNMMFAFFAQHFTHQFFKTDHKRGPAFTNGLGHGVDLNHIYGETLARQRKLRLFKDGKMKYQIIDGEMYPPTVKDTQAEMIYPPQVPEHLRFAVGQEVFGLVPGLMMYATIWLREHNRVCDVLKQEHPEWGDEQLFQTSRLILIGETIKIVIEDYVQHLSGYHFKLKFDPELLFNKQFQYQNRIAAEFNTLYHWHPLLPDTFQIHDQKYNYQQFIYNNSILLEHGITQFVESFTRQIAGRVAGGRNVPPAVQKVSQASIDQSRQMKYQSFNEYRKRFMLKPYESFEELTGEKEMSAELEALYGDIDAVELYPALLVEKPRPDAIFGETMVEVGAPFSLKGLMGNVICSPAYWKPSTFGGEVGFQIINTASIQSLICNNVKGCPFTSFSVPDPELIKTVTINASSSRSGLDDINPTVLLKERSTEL
Protocol: Whole Blood Assay for COX-II
Fresh blood was collected in heparinized tubes by syringe from volunteers with consent. The subjects had no apparent inflammatory conditions and had not taken any medication for at least 7 days prior to blood collection.
500 μl aliquots of human whole blood were incubated with either 2 μl dimethyl sulfoxide vehicle or 2 μl of a test compound at final concentrations for 15 min at 37° C. This was followed by incubation of the blood with […] of 5 mg/ml lipopolysaccharide for 24 hrs at 37° C. for induction of COX-II. Appropriate PBS treatments (no LPS) were used as blanks. At the end of the incubation, the blood was centrifuged at 6000×g for 5 min at 4° C. to obtain plasma. A 100 μl aliquot of plasma was mixed with 400 μl methanol for protein precipitation. The supernatant was obtained by centrifuging at 6000×g for 5 min at 4° C. and was assayed for prostaglandin E2 (PGE2) using a radioimmunoassay kit after conversion of PGE2 to its methyl oximate derivative according to the manufacturer's procedure.
For a test compound, the results were expressed as percent inhibition of […] production relative to control incubations containing dimethyl sulfoxide vehicle. The data were analyzed by that a test compound at the indicated concentrations was changed log value and was applied simple linear regression. IC50 value was calculated by least squares method.

[1] = test system: adjuvant arthritis in rats; test: Analgesic activity: effect on adjuvant arthritis in rats (Randall-Selitto pain threshold); assay type: in vivo, Lewis rats; conditions: dose 3.2 mg/kg; ratio of threshold pressure of treated vs non-treated arthritic rats, 2 hrs after administration; ratio of 1.5 = effective dose

T1 sequence (P23219 24-599): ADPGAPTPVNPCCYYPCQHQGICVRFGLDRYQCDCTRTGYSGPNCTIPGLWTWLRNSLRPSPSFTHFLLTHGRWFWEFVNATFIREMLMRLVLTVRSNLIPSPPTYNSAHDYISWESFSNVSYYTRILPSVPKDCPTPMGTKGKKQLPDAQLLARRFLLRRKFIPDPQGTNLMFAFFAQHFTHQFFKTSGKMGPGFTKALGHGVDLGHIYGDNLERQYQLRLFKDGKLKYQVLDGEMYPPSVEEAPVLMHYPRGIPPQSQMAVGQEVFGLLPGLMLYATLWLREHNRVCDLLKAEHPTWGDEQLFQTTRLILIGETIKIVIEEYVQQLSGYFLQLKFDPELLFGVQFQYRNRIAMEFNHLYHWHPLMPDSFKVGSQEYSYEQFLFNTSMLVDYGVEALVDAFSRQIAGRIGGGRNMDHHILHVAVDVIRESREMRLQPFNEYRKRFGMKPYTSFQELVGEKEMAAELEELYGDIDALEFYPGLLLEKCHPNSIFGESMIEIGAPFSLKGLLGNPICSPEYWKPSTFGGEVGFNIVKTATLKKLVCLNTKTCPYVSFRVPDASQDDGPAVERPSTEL

melting point [°C]	IC50 (COX-I) [nM]	IC50 (COX-II) [nM]	SMILES	The coefficient of analgesic [1]
140 to 141	< 10	≥ 100	COc1ccc(-c2nc(C(F)(F)F)cn2-c2ccc(Br)cc2)cc1 [Example 1-2, 1-(4-Bromophenyl)-2-(4-methoxyphenyl)-4-trifluoromethyl-1H-imidazole]	–
90 to 92	< 10	≥ 100	COc1ccc(-n2cc(C(F)(F)F)nc2-c2ccc(OC)nc2)cc1 [Example 3-2, 1-(4-Methoxyphenyl)-2-(2-methoxy-5-pyridinyl)-4-trifluoromethyl-1H-imidazole]	>1.5
130 to 132	< 10	≥ 100	COc1ccc(-n2cc(C#N)nc2-c2ccc(OC)nc2)cc1 [Example 4-2, 4-Cyano-1-(4-methoxyphenyl)-2-(2-methoxy-5-pyridinyl)-1H-imidazole]	–
198 to 200	–	–	COc1ccc(-c2nc(C(F)(F)F)cn2-c2ccc(O)cc2)cn1 [Example 6, 1-(4-Hydroxyphenyl)-2-(2-methoxy-5-pyridinyl)-4-trifluoromethyl-1H-imidazole]	–
155 to 158	< 10	≥ 100	COc1ccc(-c2nc(C(F)(F)F)cn2-c2ccc(C#N)cc2)cn1 [Example 8, 1-(4-Cyanophenyl)-2-(2-methoxy-5-pyridinyl)-4-trifluoromethyl-1H-imidazole]	–
142 to 143	–	–	CCOC(=O)c1cn(-c2ccc(OC)cc2)c(-c2ccc(OC)cc2)n1 [Example 9, 4-Ethoxycarbonyl-1-(4-methoxyphenyl)-2-(4-methoxyphenyl)-1H-imidazole]	–
167 to 169	–	–	COc1ccc(-c2nc(C(N)=O)cn2-c2ccc(OC)cc2)cc1 [Example 10, 4-Carbamoyl-1-(4-methoxyphenyl)-2-(4-methoxyphenyl)-1H-imidazole]	–
142 to 143	< 10	≥ 100	COc1ccc(-c2nc(C#N)cn2-c2ccc(OC)cc2)cc1.Cl [Example 11, 4-Cyano-1-(4-methoxyphenyl)-2-(4-methoxyphenyl)-1H-imidazole hydrochloride]	>1.5
132 to 134	–	–	COc1ccc(-c2nc(C#N)cn2-c2ccc(OC)cc2)cc1 [Example 12-2, 4-Cyano-1-(4-methoxyphenyl)-2-(4-methoxyphenyl)-1H-imidazole]	–
150 to 153	< 10	≥ 100	COc1ccc(-c2nc(C(F)F)cn2-c2ccc(OC)cc2)cc1.Cl [Example 17, 4-Difluoromethyl-1-(4-methoxyphenyl)-2-(4-methoxyphenyl)-1H-imidazole hydrochloride]	–
102 to 105	–	–	COc1ccc(-c2nc(C(=O)O)cn2-c2ccc(OC)cc2)cc1 [Example 18, 4-Carboxy-1-(4-methoxyphenyl)-2-(4-methoxyphenyl)-1H-imidazole]	–
180 to 181	< 10	≥ 100	COc1ccc(-c2nc(C3CC3)cn2-c2ccc(OC)cc2)cc1.Cl [Example 20, 4-Cyclopropyl-1-(4-methoxyphenyl)-2-(4-methoxyphenyl)-1H-imidazole hydrochloride]	–
203 to 205	< 10	≥ 100	COc1ccc(-c2nc(C)cn2-c2ccc(OC)cc2)cc1.Cl [Example 21, 1-(4-Methoxyphenyl)-2-(4-methoxyphenyl)-4-methyl-1H-imidazole hydrochloride]	–
139 to 140	–	–	CCOC(=O)c1ccc(-n2cc(C#N)nc2-c2ccc(OC)cc2)cc1 [Example 25-2, 4-Cyano-1-(4-ethoxycarbonylphenyl)-2-(4-methoxyphenyl)-1H-imidazole]	–
185 to 186	–	–	COc1ccc(-c2nc(C#N)cn2-c2ccc(C#N)cc2)cc1 [Example 27, 4-Cyano-1-(4-cyanophenyl)-2-(4-methoxyphenyl)-1H-imidazole]	–
116 to 117	–	–	COc1ccc(-c2nc(C(C)=O)cn2-c2ccc(OC)cc2)cc1 [Example 28, 4-Acetyl-1-(4-methoxyphenyl)-2-(4-methoxyphenyl)-1H-imidazole]	>1.5
143 to 145	–	–	COc1ccc(-c2nc(C(F)F)cn2-c2ccc(O)cc2)cc1 [Example 32, 4-Difluoromethyl-1-(4-hydroxyphenyl)-2-(4-methoxyphenyl)-1H-imidazole]	–
131 to 132	< 10	≥ 100	COc1ccc(-c2nc(C(F)F)cn2-c2ccc(C#N)cc2)cc1 [Example 34, 1-(4-Cyanophenyl)-4-difluoromethyl-2-(4-methoxyphenyl)-1H-imidazole]	–
109 to 110	–	–	CCOC(=O)c1cn(-c2ccc(OCc3ccccc3)cc2)c(-c2ccc(OC)nc2)n1 [Example 35-2, 1-(4-Benzyloxyphenyl)-4-ethoxycarbonyl-2-(2-methoxy-5-pyridinyl)-1H-imidazole]	–
135 to 137	–	–	CCOC(=O)c1cn(-c2ccc(OC)cc2)c(-c2ccc(OC)nc2)n1 [Example 41-2, 4-Ethoxycarbonyl-1-(4-methoxyphenyl)-2-(2-methoxy-5-pyridinyl)-1H-imidazole]	–
118 to 119	–	–	CCN(C)C(=O)c1cn(-c2ccc(OCc3ccccc3)cc2)c(-c2ccc(OC)cc2)n1 [Example 46, 1-(4-Benzyloxyphenyl)-4-(N-ethyl-N-methylcarbamoyl)-2-(4-methoxyphenyl)-1H-imidazole]	–
146 to 147	–	–	CCN(CC)C(=O)c1cn(-c2ccc(OCc3ccccc3)cc2)c(-c2ccc(OC)cc2)n1 [Example 48, 1-(4-Benzyloxyphenyl)-4-(N,N-diethylcarbamoyl)-2-(4-methoxyphenyl)-1H-imidazole]	–
126 to 128	–	–	CCC(=O)c1cn(-c2ccc(OCc3ccccc3)cc2)c(-c2ccc(OC)nc2)n1 [Example 55, 1-(4-Benzyloxyphenyl)-4-ethylcarbonyl-2-(2-methoxy-5-pyridinyl)-1H-imidazole]	–
221 to 223	–	–	CCC(=O)c1cn(-c2ccc(O)cc2)c(-c2ccc(OC)nc2)n1 [Example 56, 4-Ethylcarbonyl-1-(4-hydroxyphenyl)-2-(2-methoxy-5-pyridinyl)-1H-imidazole]	–
118 to 120	–	–	COc1ccc(-c2nc(C(=O)C(C)C)cn2-c2ccc(OCc3ccccc3)cc2)cn1 [Example 57, 1-(4-Benzyloxyphenyl)-4-isopropylcarbonyl-2-(2-methoxy-5-pyridinyl)-1H-imidazole]	–
185 to 187	–	–	COc1ccc(-c2nc(C(=O)C(C)C)cn2-c2ccc(O)cc2)cn1 [Example 58, 4-Isopropylcarbonyl-1-(4-hydroxyphenyl)-2-(2-methoxy-5-pyridinyl)-1H-imidazole]	–
215 to 216	–	–	COc1ccc(-c2nc(C(F)(F)F)cn2-c2ccc(O)cc2)cc1 [Example 62, 1-(4-Hydroxyphenyl)-2-(4-methoxyphenyl)-4-trifluoromethyl-1H-imidazole]	–
